Assay results published in US20200338040A1, “METHODS FOR TREATING ALZHEIMER'S DISEASE AND RELATED DISORDERS” (The General Hospital Corporation, priority 2015, published 2020).
Where a name gives a salt, the structure may show the parent alone. Each block holds one molecule with its values, some of them ahead of it.

Assays:
Aβ40 and Aβ42 = experiment: Thioflavin T Aβ fibrillization assay; conditions: 5, 50, 5000 nM, one hour incubation at 37° C.
Description: In vitro amyloid fibrillization assay was performed using synthetic Aβ peptides (rPeptide, Bogart GA) as well as thioflavin-T (Sigma-Aldrich), respectively dissolved in DMSO and in methanol.
DMSO was used as control. The progression of fibrillization was followed every 10 min. for 60 min. at room temperature by measuring the fluorescence intensity at excitation and emission wavelengths of 450 nm and 480 nm, respectively, using an M3 microplate reader. The results were normalized for background using fluorescent reading at time 0 by the software provided by the M3 plate reader.

ISF Aβx-40 = biological target: T1, ISF Aβx-40 (Homo sapiens, UniProt P05067); experiment: In vivo microdialysis of ISF in APP/PS1 mice, Aβx-40; set-up: species or system mouse; conditions: 3.15 mg/kg i.p. daily for one week
T1 construct: commercially available kits BNT77/BA27 for Aβ40 or BNT77/BC05 for Aβx-42; from tissue; host or cells: brain extracts (TBS, Triton, SDS) or hippocampal interstitial fluid of APPswe/PS1dE9 mice

Aβ oligomers = experiment: 82E1/82E1 ELISA of Aβ oligomers in TBS soluble brain fraction of APP/PS1 mice; format: in vivo, mouse; conditions: one week i.p. treatment
Aβx-40 = biological target: T2, Aβx-40 (Homo sapiens, UniProt P05067); experiment: Brain extract sandwich ELISA in APP/PS1 mice, Aβx-40; format: in vivo, mouse; conditions: for content of TBS-soluble Aβx-40 / total level of TBS soluble Aβx-40 after 0.5 M Gdn-HCl: seven days; for content of TBS-soluble Aβx-40: APP/PS1 mice; for total level of TBS soluble Aβx-40 after 0.5 M Gdn-HCl: guanidine 37° C. 30 min
T2 construct: commercially available kits BNT77/BA27 for Aβ40 or BNT77/BC05 for Aβx-42; from tissue; host or cells: brain extracts (TBS, Triton, SDS) or hippocampal interstitial fluid of APPswe/PS1dE9 mice

[1] = system: N- and C-terminal fragments of Gaussian luciferase conjugated to Aβ42; experiment: Aβ split-luciferase complementation assay, oligomer formation in HEK293 cells; format: cell-based
Description: (§1) Aβ agglomeration and oligomer dissociation assays were performed in vitro using an Aβ splitluciferase complementation assay. […] The conditioned media from these cells was collected, 10 nM of coelenterazine was added and the luciferase activity was measured using a Wallac 1420 (PerkinElmer). […] The luciferase activity was measured.

Aβ42 = biological target: T3, Aβ42 (Homo sapiens, UniProt P05067); experiment: Aβ42 fibril formation by transmission electron microscopy; format: biochemical
T3 construct: Aberrant Aβ peptide isoforms that are 40 or 42 amino acids in length (Aβ-40/42); host or cells: synthetic
Description: The anti-fibrillogenic properties of cromolyn was confirmed by performing TEM analysis. […] After incubation for 48 hours, 15 μl or the Aβ42 fibril solution were adsorbed on carbon-coated EM grids for 20 min. at room temperature. After 3 washes in sterile PBS and ddH2O, the grids were allowed to dry before negative staining with 2% (w/v) uranyl-acetate water, two times for 8 min. Each grid was then briefly washed in degassed ddH2O, air dried, and imaged by TEM at a magnification of 150,000×.

monomeric Aβ = experiment: Immunoblot of 4 kDa Aβ band (6E10, 82E1) in TBS soluble extracts of APP/PS1 mice; format: in vivo, mouse; conditions: one week i.p. treatment
[2] = cited from earlier work
[3] = system: ISF Aβx-42 and Aβ oligomers; experiment: In vivo microdialysis of ISF in APP/PS1 mice, Aβx-42 and Aβ oligomers; set-up: species or system mouse; conditions: 3.15 mg/kg i.p. daily for one week; compared with ISF Aβx-40
amyloid deposits = experiment: Immunohistochemical amyloid burden and density of amyloid deposits in APP/PS1 mice; format: in vivo, mouse; conditions: one week of treatment
[4] = system: pre-existing Aβ42 oligomers (Gluc halves fused with Aβ42); experiment: Oligomer dissociation assay, split-luciferase, conditioned media; format: biochemical; conditions: added to conditioned media, 10 nM, 10 μM or 1 mM, 12 hours
Description: as §1

ISF Aβ = ISF Aβ half-life by reverse microdialysis with Compound E in APP/PS1 mice; format: in vivo, mouse; conditions: 3.15 mg/kg
Description: The contralateral hippocampus was used for this experiment. […] Aβ levels within the ISF were measured for an additional 5 hours. The single logarithmic plot was made from Aβ levels and extrapolated the half-life of ISF Aβ.

Aβ peptides = experiment: Binding to Aβ peptides
Aβx-42 = biological target: T4, Aβx-42 (Homo sapiens, UniProt P05067); experiment: Brain extract sandwich ELISA in APP/PS1 mice, Aβx-42; format: in vivo, mouse; conditions: for content of TBS-soluble Aβx-42 / total level of TBS soluble Aβx-42 after 0.5 M Gdn-HCl: seven days; for content of TBS-soluble Aβx-42: APP/PS1 mice; for total level of TBS soluble Aβx-42 after 0.5 M Gdn-HCl: guanidine 37° C. 30 min
T4 construct: commercially available kits BNT77/BA27 for Aβ40 or BNT77/BC05 for Aβx-42; from tissue; host or cells: brain extracts (TBS, Triton, SDS) or hippocampal interstitial fluid of APPswe/PS1dE9 mice

APP/PS1 transgenic mice = experiment: Morris water maze in APP/PS1 transgenic mice; format: in vivo, mouse; conditions: versus mock treatment
clinical = conditions: human, in vivo, po, 10 mg, average Cmax of ibuprofen in the CSF
Description: The evaluation of the plasma and CSF levels in 24 human subjects under an IND and a phase I study followed a 10 mg or 20 mg oral administration to healthy volunteers (age 55-79).

[5] = 3.15 mg/kg, versus PBS controls

T4 sequence (P05067 672-713 limits assumed): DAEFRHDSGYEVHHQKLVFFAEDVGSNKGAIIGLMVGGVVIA
T2 sequence (P05067 672-711 limits assumed): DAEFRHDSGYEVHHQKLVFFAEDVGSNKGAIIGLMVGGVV
T3 sequence (P05067 672-713 limits assumed): as the sequence (P05067 672-713 limits assumed) above
T1 sequence (P05067 672-711 limits assumed): as the sequence (P05067 672-711 limits assumed) above

ISF Aβx-40 level (ISF Aβx-40): 283 pM
decrease of ISF Aβx-40 level (ISF Aβx-40): 30%
content of TBS-soluble Aβx-40 (Aβx-40; 2.1 mg/kg i.p. daily): 39.5%
total level of TBS soluble Aβx-40 after 0.5 M Gdn-HCl (Aβx-40; 2.1 mg/kg): 50.7%
content of TBS-soluble Aβx-40 (Aβx-40; 3.15 mg/kg i.p. daily): 37.1%
total level of TBS soluble Aβx-40 after 0.5 M Gdn-HCl (Aβx-40; 3.15 mg/kg): 44.6%
amount of Aβx-40 extracted in 2% SDS (Aβx-40; [5]): significantly decreased
amount of Aβx-40 extracted in 2% triton (Aβx-40; [5]): significantly decreased
formation of Aβ42 fibrils, TEM (Aβ42; 500 nM): inhibited
formation of Aβ42 fibrils, TEM (Aβ42; lower concentration (50 nM)): no effect was detected
luminescence signal, pre-existing oligomers [4]: failed to impact the luminescence signal
binding to Aβ peptides (Aβ peptides): binds to Aβ peptides
content of TBS-soluble Aβx-42 (Aβx-42; 2.1 mg/kg i.p. daily): 40.9%
total level of TBS soluble Aβx-42 after 0.5 M Gdn-HCl (Aβx-42; 2.1 mg/kg): 63.3%
content of TBS-soluble Aβx-42 (Aβx-42; 3.15 mg/kg i.p. daily): 46.2%
total level of TBS soluble Aβx-42 after 0.5 M Gdn-HCl (Aβx-42; 3.15 mg/kg): 76.1%
amount of Aβx-42 extracted in 2% SDS (Aβx-42; [5]): significantly decreased
amount of Aβx-42 extracted in 2% triton (Aβx-42; [5]): significantly decreased
SMILES: O=C(O)c1cc(=O)c2c(OCC(O)COc3cccc4oc(C(=O)O)cc(=O)c34)cccc2o1 [cromolyn sodium, disodium salt of 5,5′-[(2-hydroxytrimethylene)dioxy]bis [4-oxo-4H-1-benzopyran-2-carboxylate]]
Aβ40 and Aβ42 fibrillization, thioflavin T (Aβ40 and Aβ42): inhibited Aβ fibril formation in vitro at a nanomolar concentration
levels of oligomeric aggregates, 82E1/82E1 ELISA (Aβ oligomers): no changes
concentration at which the effect on luminescence could be detected [1]: above 10 μM
luminescence signal, oligomer formation ([1]; 10 nM, 10 μM or 1 mM, 12 hours): significantly decreased the luminescence signal in a dose-dependent manner
amounts of monomeric Aβ, 4 kDa band (monomeric Aβ): decreased
water solubility [2]: water soluble
ISF Aβx-42 and Aβ oligomers [3]: performed similarly
amyloid burden and density of amyloid deposits (amyloid deposits): remained unaffected
shortening of half-life of ISF Aβ versus control (ISF Aβ): about 50%
time after Compound E at which ISF Aβ levels started to decrease (ISF Aβ): 2 h
memory capabilities in the Morris water maze tests (APP/PS1 transgenic mice): prevented lowering memory capabilities

Cmax (clinical): 3.94 ± 1.29 ng/mL
SMILES: CC(C)Cc1ccc(C(C)C(=O)O)cc1 (racemic) [ibuprofen, (RS)-2-(4-(2-methylpropyl)phenyl) propanoic acid]
solubility in organic solvents such as ethanol and acetone [2]: readily soluble
solubility in water [2]: < 1 mg/mL
